Results on two compounds are retold here after patent publication US9597531B2, “Selective, lipophilic, and long-acting beta agonist monotherapeutic formulations and methods for the cosmetic treatment of adiposity and contour bulging” (NEOTHETICS, INC., priority 2010, dated 2017).

The nature of series [1]: Pharmacokinetics and bioavailability in minipigs after SC administration (Example 8). The format is in vivo, Gottingen minipig. Conditions: for Tmax / AUC(0-inf) / Cmax / half-life: Gottingen, minipig, plasma, 4 ug/kg. Here is the method:
Plasma concentrations of salmeterol were monitored in a male and a female Gottingen minipig after SC administration of salmeterol xinafoate. SC dose of 4 μg/kg salmeterol xinafoate was administered as a single bolus dose. […] Samples were processed to plasma by centrifugation under refrigeration and stored frozen at approximately −70° C. (±15° C.) until analysis.
Other calculations were done using Microsoft Excel® XP. The bioanalytical and pharmacokinetic data were reported to 3 significant figures.

A further series relates to inguinal fat pad. Put plainly: Inguinal fat pad weight after SC injection into the rat inguinal fat pad (Example 6). The format is in vivo, Sprague-Dawley rats.
For series [2], the system named is subcutaneous fat thickness. Put plainly: Subcutaneous fat thickness by 2D-ultrasound (Example 7).
For series [3] the following is noted: minipig, in vivo.
The conditions of series [4]: compared with albuterol; cited from earlier work.
Where [5] appears, read: SC single site 4 μg/kg, female 2-0623.
[6] abbreviates: SC single site 4 μg/kg, male 1-0771.

Each structure is given as a SMILES string. Where two headings read alike, the source gives them in different places.

Experimental for inguinal fat pad: Mature male Sprague-Dawley rats weighing approximately 500 g were lightly anesthetized with 4% isoflurane. Test article injections (drug vehicle, different doses of salmeterol xinafoate) were injected SC into the right inguinal fat pad in a volume of 0.4 mL. An equal volume of drug vehicle was injected into the left inguinal fat pad. […] Approximately 24 hours after the last injection, rats were anesthetized, sacrificed and the right and left fat pads harvested and weighed. The change in fat pad weight (Right vs. Left) was calculated and expressed as a percent change in inguinal fat pad weight (% change IFP=(Right side−Left side)×100/Left side).

Usually Tmax stands for the time at which the peak concentration occurs. In the case of `OCc1cc(C(O)CNCCCCCCOCCCCc2ccccc2)ccc1O` (stereo not shown) [salmeterol xinafoate], in series [1] (SC 4 μg/kg), the “absorption following SC administration” value is recorded as “rapidly absorbed”. Moreover, the time of peak concentration (Tmax) in series [1] (both sexes, SC 4 μg/kg, male and female, read-out: Tmax values) lay in the range of 20 to 30 min. For the same compound, the “change in inguinal fat pad weight” value with inguinal fat pad (0.1, 1, 10 or 100 μg SC into fat pad on 3 consecutive days, right vs left (vehicle) pad, FIG. 1) is listed as “dose-related reduction in fat pad weight”. In addition, in the series on inguinal fat pad (inguinal fat pad after SC injection, data not shown), the “staining and histological evaluation of the tissue” value was “reduction in fat cell number and size”. In addition, the “evaluation of the injection sites” value in series [2] (SC twice per week, 0.05, 0.5 or 5 μg per site) is reported as “did not reveal any adverse reactions”. For the same compound, in series [2] (SC twice per week, FIG. 2), the “fat thickness (2D-ultrasound)” value is recorded as “dose-related changes in fat thickness”. In series [2] (highest dose (5 ng)), the “increase of fat thickness” value is listed as “approximately 3%”. Besides, the “reduction of total fat thickness” value in series [2] (lowest doses (0.05 and 0.5 ng)) is given as 7-9%.

The AUC(0-inf) is the area under the concentration-time curve extrapolated to infinity. Read a high AUC(0-inf) as more exposure. The term Cmax denotes the peak of the concentration-time curve. The term half-life denotes the time needed for the level to fall by half in the phase considered. Read a high half-life as slow decline. For `OCc1cc(C(O)CNCCCCCCOCCCCc2ccccc2)ccc1O` (racemic) [Salmeterol, ±2-(hydroxymethyl)-4-[1-hydroxy-2-[6-(4-phenylbutoxy)hexylamino]ethyl]-phenol], the area under the curve AUC(0-inf) in series [1] (setting [5]) came out at 1.67 ng·h/mL; in series [1] (setting [6]) it was 2.26 ng·h/mL. The results for the Cmax in series [1] (setting [5]), in series [1] (setting [6]) and in series [3] (0.004 ug/kg) were 0.433 ng/mL, 0.564 ng/mL and 0 pg/mL, respectively. In addition, the values for the half-life in series [1] (setting [5]) and in series [1] (setting [6]) were 494 min and 684 min, respectively. The Tmax in series [1] (SC single site 4 μg/kg, female 2-0623, read-out: Tmax) was 30 min; in series [1] (SC single site 4 μg/kg, male 1-0771, read-out: Tmax), 20 min. Also, the tlast in series [1] (setting [5]) and in series [1] (setting [6]) was 24.0 h throughout. In addition, the “salmeterol partition ratio (average plasma Cmax subcutaneous / average plasma Cmax intravenous)” value in series [3] (both, Gottingen) is 0.1. The plasma concentrations observed entry in series [3] (sc) is given as “Scarce or no plasma concentrations”. In addition, the “lipophilicity relative to albuterol” value in series [4] is listed as “at least 10,000 times”.
